“And” between values parts separate entries of the source, which are not always exact repeats. Identical values can stand only once. Like-named read-outs stand apart in the source and are kept apart here. Values belong to the compound of their own block, whether it stands above or below them.
What was measured:
SF-268 [1] = assay: MTT assay at 72 hr (24 hr drug exposure, wash, 48 hr); type: cell-based; conditions: Homo sapiens, SF-268, read-out: IC50 SF-268 24 h, Average, MTT at 72 hr, Average of the experiments
Method: (§1) Exposition of 24hr to drug, washed, and incubated for another 48hr (total of 72hr assay)

CEM cells = assay: CellTiter 96 cell proliferation assay (chemosensitivity), 48 h; type: cell-based; conditions: for EC50: Homo sapiens, CCRF-CEM, read-out: EC50 (50% of the dose response curve); for effect of the es transport inhibitor NBMPR on resistance of CEM cells: presence of NBMPR
Method: (§2) The chemosensitivity of suspension cells lines (e.g., CEM or CEM-derivatives) is assessed using the CellTiter 96 ? proliferation assay. […] Adherent cell lines (e.g., DU145 or DU145^R) are seeded (^˜10^5 cells) in triplicate dishes, 24 h before drug exposure. Growth inhibition is determined by trypsinization and counting cells electronically.

SF-268 [2] = assay: 3H-TdR (3H-thymidine) incorporation assay at 72 hr; type: cell-based, Human
H-460 [3] = assay: 3H-TdR (3H-thymidine) incorporation assay at 72 hr; type: cell-based, Human
CCRF-CEM [4] = assay: MTT or WST-1 assay at 72 hr (24 hr drug exposure, wash, 48 hr); type: cell-based; conditions: Homo sapiens, CCRF-CEM, read-out: IC50 CCRF-CEM 24 h, Average, MMT or WST-1 at 72 hr, Average of the experiments
Method: as §1

CEM/dCK- [5] = assay: as above; type: cell-based
Method: as §1

MCF-7 [6] = assay: 3H-TdR (3H-thymidine) incorporation assay at 72 hr; type: cell-based, Human
CCRF-CEM [7] = assay: 3H-TdR (3H-thymidine) incorporation assay at 72 hr; type: cell-based
Method: (§3) Table of IC50 Values (μM) for Controls
(§4) Exposition of 24 hr to drug, wash, incubated for another 48 hr (total of 72 hr assay)
(§5) (3H-Thymidine Incorporation Assay)

CEM/dCK- [8] = assay: 3H-TdR (3H-thymidine) incorporation assay at 72 hr; type: cell-based
Method: as §3, §4, §5

H-460 [9] = assay: MTT assay at 72 hr (24 hr drug exposure, wash, 48 hr); type: cell-based
Method: as §1

MCF-7 [10] = assay: as above; type: cell-based; conditions: Homo sapiens, MCF7, read-out: IC50 MCF-7 24 h, Average, MTT at 72 hr, Average of the experiments
Method: as §1

CEM/ARAC8C cells [11] = assay: CellTiter 96 cell proliferation assay (chemosensitivity), 48 h; type: cell-based
Method: as §2

CEM/dCK cells = assay: as above; type: cell-based; conditions: read-out: EC50 (50% of the dose response curve), 48 h exposure
Method: as §2

hENT1 = target: T1, hENT1 (Homo sapiens, UniProt Q99808); assay: Cellular uptake assay of [3H]nucleoside in DU145 cells, with or without NBMPR or excess non-radioactive troxacitabine; type: in vitro ADME; parameters: The presence of functional es-mediated transport (hENT1) in DU145 cells; endogenous in cells; host or cells: DU145 cells; conditions: DU-145, 10 μM, 6-min time course, read-out: inhibition of total [3H]uridine uptake in the presence of NBMPR
T1 sequence (Q99808 1-456): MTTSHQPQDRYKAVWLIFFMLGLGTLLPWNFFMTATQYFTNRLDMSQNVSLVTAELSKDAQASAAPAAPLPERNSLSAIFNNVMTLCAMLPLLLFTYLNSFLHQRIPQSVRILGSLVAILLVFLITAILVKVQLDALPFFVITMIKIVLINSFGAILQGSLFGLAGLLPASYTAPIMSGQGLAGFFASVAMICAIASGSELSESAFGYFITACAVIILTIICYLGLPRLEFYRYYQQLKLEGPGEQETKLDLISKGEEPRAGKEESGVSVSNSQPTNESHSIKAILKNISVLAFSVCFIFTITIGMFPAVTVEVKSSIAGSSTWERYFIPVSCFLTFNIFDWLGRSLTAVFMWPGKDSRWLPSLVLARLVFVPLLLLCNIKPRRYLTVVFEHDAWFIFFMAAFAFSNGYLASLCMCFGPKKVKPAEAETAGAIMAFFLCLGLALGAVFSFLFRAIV
Method: Cancer Res., 56: 4187-4191.
This experiment is designed to show whether [^3H]L-troxacitabine (10 μM) is taken up by DU145 cells and if the rate of uptake is affected by the addition of high concentrations (1 mM) of non-radioactive troxacitabine.

CEM/ARAC8C cells [12] = assay: Cellular uptake assay of [3H]nucleoside in nucleoside-transport deficient CEM/ARAC8C cells; type: in vitro ADME
Method: FIG. 1 Comparative uptake of 30 μM [^3H]-troxacitabine in CEM (Panel A) and CEM/ARAC8C (Panel B) cells. [^3H]-Uridine uptake in either the presence or absence of the hENT1 inhibitor, NBMPR or 5 mM non-radioactive uridine was included for comparison as a control substrate.

[13] = Homo sapiens, SF-268, 24 h, read-out: IC50 SF-268 24 h, Average, Average ± spread of the repeat determinations, 24 h exposure
[14] = Homo sapiens, NCI-H460, 24 h, read-out: IC50 H-460 24 h, Average, Average ± spread of the repeat determinations, 24 h exposure
[15] = read-out: IC50 H-460 24 h, 24 h drug exposure, wash, another 48 hr, 3H-TdR incorporation at 72 hr

Compound: Nc1ccn([C@@H]2O[C@H](CO)[C@@H](O)[C@@H]2O)c(=O)n1 [Cytarabine, cytarabine, reference compound]
IC50 (SF-268 [1]): 25 ± 23 µM
EC50 (CEM cells; 48 h): 10 nM
effect of the es transport inhibitor NBMPR on resistance of CEM cells (CEM cells): increased resistance
IC50 (SF-268 [2]; [13]): 940 nM
IC50 (SF-268 [2]; read-out: IC50 SF-268 24 h, 24 h drug exposure, wash, another 48 hr, 3H-TdR incorporation at 72 hr, listed as Cytosine Arabinoside): 300 nM
IC50 (H-460 [3]; [14]): 52 nM
IC50 (H-460 [3]; [15]): 13 nM and 99 nM

IC50 (CCRF-CEM [4]): 20 ± 23 nM
IC50 (MCF-7 [6]; Homo sapiens, MCF7, 24 h, read-out: IC50 MCF-7 24 h, Average, Average ± spread of the repeat determinations, 24 h exposure): 6.8 nM
IC50 (MCF-7 [6]; read-out: IC50 MCF-7 24 h, 24 h drug exposure, wash, another 48 hr, 3H-TdR incorporation at 72 hr): 8.7 nM and 10 nM
IC50 (CCRF-CEM [7]; Homo sapiens, CCRF-CEM, 24 h, read-out: IC50 CCRF-CEM 24 h, Average, Average ± spread of the repeat determinations, 24 h exposure): 8.4 nM
IC50 (CCRF-CEM [7]; read-out: IC50 CCRF-CEM 24 h, 24 h drug exposure, wash, another 48 hr, 3H-TdR incorporation at 72 hr): 10 nM and 9.2 nM
IC50 (CEM/dCK- [8]; 24 h, read-out: IC50 CEM/dCK- 24 h, Average, Average ± spread of the repeat determinations, 24 h exposure): 66 ± 24 µM
IC50 (CEM/dCK- [8]; read-out: IC50 CEM/dCK- 24 h, 24 h drug exposure, wash, another 48 hr, deoxycytidine kinase-deficient CCRF-CEM): 51 µM and 41 µM and 30 µM
IC50 (MCF-7 [10]): 78 nM
IC50 (SF-268 [2]; [13]): 8.6 nM
IC50 (SF-268 [2]; read-out: IC50 SF-268 24 h, 24 h drug exposure, wash, another 48 hr, 3H-TdR incorporation at 72 hr): 4.5 nM and 10 nM and 9.4 nM
IC50 (H-460 [3]; [14]): 11 nM
IC50 (H-460 [3]; [15]): 9.1 nM and 10 nM and 8.3 nM
Compound: Nc1ccn([C@@H]2O[C@H](CO)[C@@H](O)C2(F)F)c(=O)n1 [Gemcitabine, gemcitabine, reference compound]
Resistance Factor*, Average (CEM/dCK- [5]; CEM/dCK- versus CCRF-CEM, Average of the experiments): 3987 ± 3871
IC50 (CEM/dCK- [5]; read-out: IC50 CEM/dCK- 24 h, Average, MMT or WST-1 at 72 hr, Average of the experiments): 57 ± 39 µM
Factor* (Resistance Factor), Average (CEM/dCK- [8]; Average ± spread of the ratios dCK- on wild-type CCRF-CEM): 8618 ± 3614
IC50 (H-460 [9]; Homo sapiens, NCI-H460, read-out: IC50 H-460 24 h, Average, MTT at 72 hr, Average of the experiments): 72 ± 100 nM
IC50 (H-460 [9]; read-out: IC50 H-460 24 h, MTT at 72 hr, 24 h exposure, single experiment): 12 nM and 86 nM
IC50 (SF-268 [1]): 0.18 ± 0.25 µM
level of resistance of nucleoside-transport deficient CEM/ARAC8C cells (CEM/ARAC8C cells [11]; CEM/ARAC8C compared to CEM): 431 fold
EC50 (CEM/ARAC8C cells [11]; read-out: EC50 (50% of the dose response curve), CEM/ARAC8C cells, 48 h exposure): 8.63 µM
EC50 (CEM/dCK cells): > 50 µM
EC50 (CEM cells; CEM cells, 48 h exposure): 20 nM
effect of the es transport inhibitor NBMPR on resistance of CEM cells (CEM cells): increased resistance

inhibition at 10 µM (hENT1): ~75%
uptake of [3H]nucleoside over the 6-min time course (CEM/ARAC8C cells [12]): Lack of [^3H]uridine uptake
Compound: O=c1ccn([C@@H]2O[C@H](CO)[C@@H](O)[C@H]2O)c(=O)[nH]1 [uridine]

From US20030013660A1, “Dioxolane analogs for improved inter-cellular delivery” (Shire BioChem Inc., priority 2000, published 2003)
